≈ marks a conversion by molar mass, not a printed value. Like-named read-outs stand apart in the source and are kept apart here. Marks after values point to notes of the source that are not given here.
Tests used:
[1] = tested on: Staphylococcus aureus ATCC 6538; test: MIC test with asymmetrical compounds on S. aureus; format: cell-based
Procedure: (§1) Growth inhibition experiments were performed according to the following protocol: […] Microtiter plate wells were filled with 495 microliter of this suspension to which 5 microliter of selected compounds dissolved in DMSO was added (final concentration of each compound was 10 microgram per ml). This was all performed in an anaerobic cabinet. After filling the microtiter plate was sealed and incubated for 22 hours at 37° C. Inhibiting compounds were selected by visually determining growth inhibition. According to the same protocol as in Example 3 asymmetrical compounds were tested on their inhibitory effect of C. difficile, but also on other bacterial species, such as S. aureus and B. cereus. In the below tables the compounds and the MIC values that have been found for the various micro-organisms are listed. In the tests described in Table 4 and 5 the medium indicated as 'flora' is the SIEM medium described in […], Schols H A, Nauta A, Schoterman […]. High-throughput analysis of the impact of antibiotics on the human intestinal microbiota composition.

[2] = tested on: Bacillus cereus ATCC 11778; test: MIC test with asymmetrical compounds on B. cereus; format: cell-based
Procedure: as §1

[3] = tested on: C. difficile ATCC 43599 vegetative cells; test: MIC test with asymmetrical compounds on C. difficile vegetative cells; format: cell-based, Clostridium difficile; conditions: for MIC: Clostridioides difficile; for MIC Veg. cells: Table 3
Procedure: as §1

[4] = tested on: C. difficile ATCC 43599 spores; test: MIC test with asymmetrical compounds on C. difficile spores; format: cell-based, Clostridium difficile; conditions: for MIC: Clostridioides difficile; for MIC spores: Table 3
Procedure: as §1

[5] = ATCC6538, Table 5, read-out: MIC S. aureus ATCC 6538
[6] = ATCC11778, Table 5, read-out: MIC B. cereus ATCC 11778
[7] = ATCC43599, Table 3, vegetative cells, tested concentrations 10 μg/ml-0.003 μg/ml if not indicated otherwise, read-out: MIC Veg. cells
[8] = ATCC43599, Table 4, flora (SIEM) medium, tested concentrations 1.2 μg/ml-0.03 μg/ml if not indicated otherwise, read-out: MIC veg. cells flora
[9] = ATCC43599, 22 h, Table 4, SAB model medium, tested concentrations 1.2 μg/ml-0.03 μg/ml if not indicated otherwise, read-out: MIC spores SAB model medium
[10] = ATCC43599, Table 3, spores, tested concentrations 10 μg/ml-0.003 μg/ml if not indicated otherwise, read-out: MIC spores
[11] = ATCC43599, Table 4, flora (SIEM) medium, tested concentrations 1.2 μg/ml-0.03 μg/ml if not indicated otherwise, read-out: MIC spores flora
[12] = ATCC43599, 22 h, Table 4, SAB model medium, tested concentrations 1.2 μg/ml-0.03 μg/ml if not indicated otherwise, read-out: MIC veg. cells SAB model medium
[13] = vegetative cells, tested concentrations 10 μg/ml-0.003 μg/ml if not indicated otherwise
[14] = Table 4, SAB model medium, tested concentrations 1.2 μg/ml-0.03 μg/ml if not indicated otherwise
[15] = Table 4, flora (SIEM) medium, tested concentrations 1.2 μg/ml-0.03 μg/ml if not indicated otherwise
[16] = spores, tested concentrations 10 μg/ml-0.003 μg/ml if not indicated otherwise

Row | SMILES | MIC [1, 5] [µg/mL] | MIC [2, 6] [µg/mL] | MIC [3, 7] [µg/mL] | MIC [3, 8] [µg/mL] | MIC [4, 9] [µg/mL] | MIC [4, 10] [µg/mL] | MIC [4, 11] [µg/mL] | MIC [3, 12] [µg/mL] | further results
1 | O=C1NC(=O)c2ccc3c4c(ccc1c24)C(=O)N(c1ccncc1)C3=O [20141155PBmol20] | > 100 | > 100 | – | – | – | – | – | – | –
2 | CC(=O)OCCN1C(=O)c2ccc3c4c(ccc(c24)C1=O)C(=O)NC3=O [20141155PBmol21] | > 100 | 40 (≈ 114 µM) | 0.03 to 0.07 (≈ 0.0852 to 0.199 µM) | 0.15 to 0.3 (≈ 0.426 to 0.852 µM) | 0.03 to 0.07 (≈ 0.0852 to 0.199 µM) | 0.01 to 0.03 (≈ 0.0284 to 0.0852 µM) | 0.3 to 0.6 (≈ 0.852 to 1.7 µM) | – | –
3 | O=C1NC(=O)c2ccc3c4c(ccc1c24)C(=O)N(Cc1cccnc1)C3=O [20141155PBmol13] | > 100 | > 100 | – | – | – | – | – | – | –
4 | O=C1NC(=O)c2ccc3c4c(ccc1c24)C(=O)N(c1cccc(O)c1)C3=O [20141155PBmol08] | > 100 | 10 (≈ 27.9 µM) | 0.07 to 0.15 (≈ 0.195 to 0.419 µM) | 0.6 to 1.2 (≈ 1.67 to 3.35 µM) | 0.07 to 0.15 (≈ 0.195 to 0.419 µM) | 0.03 to 0.07 (≈ 0.0837 to 0.195 µM) | 0.6 to 1.2 (≈ 1.67 to 3.35 µM) | 0.15 to 0.3 (≈ 0.419 to 0.837 µM) | –
5 | O=C1NC(=O)c2ccc3c4c(ccc1c24)C(=O)N(c1ccccc1O)C3=O [20141155PBmol10] | 40 (≈ 112 µM) | 4 (≈ 11.2 µM) | 0.3 to 0.6 (≈ 0.837 to 1.67 µM) | 0.15 to 0.3 (≈ 0.419 to 0.837 µM) | 0.3 to 0.6 (≈ 0.837 to 1.67 µM) | 0.15 to 0.3 (≈ 0.419 to 0.837 µM) | > 1.2 | 0.3 to 0.6 (≈ 0.837 to 1.67 µM) | –
6 | Cc1ccc(C)c(N2C(=O)c3ccc4c5c(ccc(c35)C2=O)C(=O)NC4=O)c1 [20141155PBmol23] | > 100 | 100 (≈ 270 µM) | 0.07 to 0.15 (≈ 0.189 to 0.405 µM) | 0.3 to 0.6 (≈ 0.81 to 1.62 µM) | 0.07 to 0.15 (≈ 0.189 to 0.405 µM) | 0.03 to 0.07 (≈ 0.081 to 0.189 µM) | > 1.2 | 0.07 to 0.15 (≈ 0.189 to 0.405 µM) | –
7 | O=C1NC(=O)c2ccc3c4c(ccc1c24)C(=O)N(CCO)C3=O [20141155PBmol57] | 40 (≈ 129 µM) | 4 (≈ 12.9 µM) | 0.15 to 0.3 (≈ 0.483 to 0.967 µM) | 0.07 to 0.15 (≈ 0.226 to 0.483 µM) | 0.3 to 0.6 (≈ 0.967 to 1.93 µM) | 0.15 to 0.3 (≈ 0.483 to 0.967 µM) | 0.6 to 1.2 (≈ 1.93 to 3.87 µM) | 0.3 to 0.6 (≈ 0.967 to 1.93 µM) | –
8 | O=C1c2ccc3c4c(ccc(c24)C(=O)N1CCO)C(=O)N(CCO)C3=O [A0547/0025269] | – | – | 0.3 to 0.6 (≈ 0.847 to 1.69 µM) | 0.3 to 0.6 (≈ 0.847 to 1.69 µM) | 0.3 to 0.6 (≈ 0.847 to 1.69 µM) | 0.3 to 0.6 (≈ 0.847 to 1.69 µM) | 0.6 to 1.2 (≈ 1.69 to 3.39 µM) | 0.6 to 1.2 (≈ 1.69 to 3.39 µM) | –
9 | CN[C@H](CC(C)C)C(=O)N[C@H]1C(=O)N[C@@H](CC(N)=O)C(=O)N[C@H]2C(=O)N[C@H]3C(=O)N[C@H](C(=O)N[C@H](C(=O)O)c4cc(O)cc(O)c4-c4cc3ccc4O)[C@H](O)c3ccc(c(Cl)c3)Oc3cc2cc(c3O[C@@H]2O[C@H](CO)[C@@H](O)[C@H](O)[C@H]2O[C@H]2C[C@](C)(N)[C@H](O)[C@H](C)O2)Oc2ccc(cc2Cl)[C@H]1O [Vancomycin, reference compound] | – | – | – | – | – | – | – | – | MIC ([1]; ATCC6538, read-out: MIC S. aureus ATCC 6538): 1 µg/mL (≈ 0.69 µM); MIC ([3]; ATCC43599, 22 h, read-out: MIC veg. cells SAB model medium): < 0.3 µg/mL; MIC ([3]; ATCC43599, read-out: MIC Veg. cells): < 0.3 µg/mL; MIC ([3]; ATCC43599, read-out: MIC veg. cells flora): < 0.3 µg/mL; MIC ([2]; ATCC11778, read-out: MIC B. cereus ATCC 11778): 1 µg/mL (≈ 0.69 µM); MIC ([4]; ATCC43599, 22 h, read-out: MIC spores SAB model medium): < 0.3 µg/mL; MIC ([4]; ATCC43599, read-out: MIC spores): < 0.3 µg/mL; MIC ([4]; ATCC43599, read-out: MIC spores flora): < 0.3 µg/mL
10 | O=C1NC(=O)c2ccc3c4c(ccc1c24)C(=O)N(CC1CCCO1)C3=O (stereo not shown) [20141155PBmol30] | > 100 | > 100 | 0.03 to 0.07 (≈ 0.0856 to 0.2 µM) | 0.3 to 0.6 (≈ 0.856 to 1.71 µM) | 0.03 to 0.07 (≈ 0.0856 to 0.2 µM) | 0.01 to 0.03 (≈ 0.0285 to 0.0856 µM) | 0.3 to 0.6 (≈ 0.856 to 1.71 µM) | 0.03 to 0.07 (≈ 0.0856 to 0.2 µM) | –
11 | O=C1NC(=O)c2ccc3c4c(ccc1c24)C(=O)N(c1ccccn1)C3=O [20141155PBmol18] | 40 (≈ 117 µM) | 4 (≈ 11.7 µM) | 0.07 to 0.15 (≈ 0.204 to 0.437 µM) | 0.15 to 0.3 (≈ 0.437 to 0.874 µM) | 0.07 to 0.15 (≈ 0.204 to 0.437 µM) | 0.07 to 0.15 (≈ 0.204 to 0.437 µM) | 0.3 to 0.6 (≈ 0.874 to 1.75 µM) | 0.07 to 0.15 (≈ 0.204 to 0.437 µM) | –
12 | O=C1NC(=O)c2ccc3c4c(ccc1c24)C(=O)N(c1ccc(O)cc1)C3=O [20141155PBmol37] | 40 (≈ 112 µM) | 4 (≈ 11.2 µM) | 0.07 to 0.15 (≈ 0.195 to 0.419 µM) | 0.6 to 1.2 (≈ 1.67 to 3.35 µM) | 0.07 to 0.15 (≈ 0.195 to 0.419 µM) | 0.03 to 0.07 (≈ 0.0837 to 0.195 µM) | 0.3 to 0.6 (≈ 0.837 to 1.67 µM) | 0.07 to 0.15 (≈ 0.195 to 0.419 µM) | –
13 | CC(=O)c1cccc(N2C(=O)c3ccc4c5c(ccc(c35)C2=O)C(=O)NC4=O)c1 [20141155PBmol17] | > 100 | 4 (≈ 10.4 µM) | 0.01 to 0.03 (≈ 0.026 to 0.0781 µM) | 0.3 to 0.6 (≈ 0.781 to 1.56 µM) | 0.03 to 0.07 (≈ 0.0781 to 0.182 µM) | 0.01 to 0.03 (≈ 0.026 to 0.0781 µM) | > 1.2 | 0.03 to 0.07 (≈ 0.0781 to 0.182 µM) | –
14 | O=C1NC(=O)c2ccc3c4c(ccc1c24)C(=O)N(c1ccccc1)C3=O [20141155PBmol19] | > 100 | > 100 | – | – | – | – | – | – | MIC Veg. cells [3, 13]: 0.01 to 0.03 µg/mL; MIC veg. cells SAB model medium [3, 14]: <0.03 µg/mL; MIC veg. cells flora [3, 15]: 0.15 to 0.3 µg/mL; MIC spores [4, 16]: 0.007 to 0.01 µg/mL; MIC spores SAB model medium [4, 14]: <0.03 µg/mL
15 | COc1ccc(OC)c(N2C(=O)c3ccc4c5c(ccc(c35)C2=O)C(=O)NC4=O)c1 [20141155PBmol46] | 10 (≈ 24.9 µM) | 4 (≈ 9.94 µM) | 0.07 to 0.15 (≈ 0.174 to 0.373 µM) | 0.6 to 1.2 (≈ 1.49 to 2.98 µM) | 0.07 to 0.15 (≈ 0.174 to 0.373 µM) | 0.03 to 0.07 (≈ 0.0746 to 0.174 µM) | 0.6 to 1.2 (≈ 1.49 to 2.98 µM) | 0.07 to 0.15 (≈ 0.174 to 0.373 µM) | –
16 | Cc1ncc([N+](=O)[O-])n1CCO [Metronadizol, reference compound] | – | – | < 0.3 | < 0.3 | < 0.3 | < 0.3 | < 0.3 | < 0.3 | –
17 | O=C1NC(=O)c2ccc3c4c(ccc1c24)C(=O)N(CCCCO)C3=O [20141155PBmol41] | > 100 | 4 (≈ 11.8 µM) | 0.07 to 0.15 (≈ 0.207 to 0.443 µM) | 0.15 to 0.3 (≈ 0.443 to 0.887 µM) | 0.07 to 0.15 (≈ 0.207 to 0.443 µM) | 0.03 to 0.07 (≈ 0.0887 to 0.207 µM) | 0.15 to 0.3 (≈ 0.443 to 0.887 µM) | 0.07 to 0.15 (≈ 0.207 to 0.443 µM) | –
18 | O=C1NC(=O)c2ccc3c4c(ccc1c24)C(=O)N(c1ccccc1)C3=O [4456-3445 (6739753)] | – | – | – | – | – | – | 0.6 to 1.2 (≈ 1.75 to 3.51 µM) | – | MIC Veg. cells [3, 13]: <0.3* ug/ml; MIC veg. cells SAB model medium [3, 14]: <0.3 µg/mL; MIC veg. cells flora [3, 15]: 0.6 to 1.2 µg/mL; MIC spores [4, 16]: <0.3* ug/ml; MIC spores SAB model medium [4, 14]: <0.3 µg/mL

Reference: patent publication US10596164B2, “Anti-clostridium compounds” (Nederlandse Organisatie voor …, priority 2014, dated 2020)
